In patent publication US9951055B2, “Thiazole-based inhibitors of scavenger receptor BI” (THE BROAD INSTITUTE, INC., priority 2012, dated 2018):
“Also recorded” adds a separate entry of the source. Like-named read-outs stand apart in the source and are kept apart here.

Tests used:
[1] = test system: ldlA[mSR-BI] cells; test: Cell cytotoxicity assay (CellTiter-Glo); type: cell-based, Chinese hamster
Method: It is possible that a compound will cause cells to decrease HDL-mediated DiI uptake due to nonspecific consequences of cellular toxicity, representing a second class of false positive hits. The cells were treated with compounds for 3 hours or 24 hours, and then cell viability was measured using the CellTiter-Glo Assay (Promega), a luciferase-based reagent that measures cellular ATP levels. The compounds were tested at different concentrations to determine IC50 values. […] Compounds that were active in the primary assay but toxic below 30 μM at 24 hours (but nontoxic at 3 hours) were still considered. […] Data were normalized against DMSO and the positive control (1 μM BLT-1) in Genedata Assay Analyzer.
All available dry powder samples of the remaining, non-quenching compounds were procured from commercial sources and purities were determined. The compounds obtained were then retested in the primary assay and in the cytotoxicity assays. We wanted to rule out any compounds that were cytotoxic, especially in the 3-hour time span of the primary DiI-HDL uptake assay. Therefore, compounds were tested in ldlA[mSR-BI]cells for cytotoxicity at 3 hours and 24 hours using the CellTiter-Glo assay (Promega) that measures cellular ATP as a marker of cell viability. […] Compounds were screened for inhibition of endocytosis using labeled transferrin, which is known to bind the transferrin receptor, enter cells by clathrin-mediated endocytosis, and move to endosomes before being recycled to the cell surface. The BLT compounds have also been tested for potential interference with endocytosis and show no such activity.

[2] = target: T1, murine SR-BI with the C384S mutation (Mus musculus, UniProt Q61009, C384S); test: Mutant SR-BI cholesterol efflux assay; type: cell-based
T1 construct: expressed in transfected cells; host or cells: CHO cell line lacking LDL receptors (variant of ldlA[mSR-BI])
T1 sequence (Q61009 1-509 C384S): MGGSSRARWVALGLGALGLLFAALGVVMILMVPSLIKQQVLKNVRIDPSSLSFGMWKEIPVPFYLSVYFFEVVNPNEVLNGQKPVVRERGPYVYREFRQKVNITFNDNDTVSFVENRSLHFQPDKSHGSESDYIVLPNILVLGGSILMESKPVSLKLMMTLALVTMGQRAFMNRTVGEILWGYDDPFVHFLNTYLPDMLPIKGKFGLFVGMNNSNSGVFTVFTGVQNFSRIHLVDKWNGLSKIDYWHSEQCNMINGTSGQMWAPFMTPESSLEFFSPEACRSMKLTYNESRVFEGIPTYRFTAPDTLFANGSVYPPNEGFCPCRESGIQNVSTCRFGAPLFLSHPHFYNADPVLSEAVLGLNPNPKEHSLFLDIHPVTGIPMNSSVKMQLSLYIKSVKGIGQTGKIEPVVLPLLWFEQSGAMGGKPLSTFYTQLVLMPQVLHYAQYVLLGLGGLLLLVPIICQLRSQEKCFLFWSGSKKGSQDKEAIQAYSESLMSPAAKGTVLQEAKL
Method: Mutant SR-BI Cholesterol Efflux Assay (SA 10: AID Nos. 588843, 602138)
BLT-1 is known to interact at cysteine 384 of SR-BI (16). […] This assay is used to determine if the compounds work in a similar fashion to BLT-1 and require Cys384 to alter the efflux of free cholesterol to HDL.
On Day 0, 50,000 cells expressing murine SR-BI with the C384S mutation per well were plated in 24-well plates. On the following day, […] On Day 1, the medium was replaced with Ham's F12 medium supplemented with 10% bovine lipoprotein deficient serum with 1 μCi/ml [1,2-^3H]cholesterol (40-60 Ci/mmol). On Day 3, the cells were washed to remove serum and incubated in Ham's F12 plus 1% fatty acid-free BSA. On Day 4, the cells were washed and pretreated with compounds for 1 hour. Subsequently, the cells were incubated for an additional 2 hours with the same concentrations of small molecules and with unlabeled HDL (final HDL concentration of 100 μg protein/ml). […] The amount of [^3H]cholesterol in the medium and within cells was calculated using liquid scintillation counting. Total cellular [^3H]cholesterol was determined as the sum of the radioactivity in the efflux medium plus the radioactivity in the cells and was used to calculate the [^3H]cholesterol efflux (percent of total [^3H]cholesterol released into the medium).

[3] = test system: endocytosis of transferrin; test: Transferrin endocytosis assay; type: cell-based
Excerpt: Transferrin Endocytosis Assay (SA 3: AID No. 602134) This assay measures the endocytosis of an independent ligand, transferrin, which is not taken up via SR-BI but by clathrin-mediated endocytosis. This assay provides a measure of the selectivity of the inhibitors. Alexa-594-labeled transferrin is taken into the cell via endocytosis and localization of labeled transferrin was quantitated in the various intracellular compartments. […] Inhibitors of interest should act selectively at SR-BI and should have no activity in this assay. Cells were pre-treated with compound for 3 hours and then treated with the Alexa-594 transferrin reagent for 30 minutes (Catalog No. T-13343; Invitrogen) in serum-free media. Plates of cells were then placed onto ice, washed with ice cold PBS, and then fixed with 4% paraformaldehyde. In addition, the nuclei were stained with 300 nM 4′,6-diamidino-2-phenylindole (DAPI) (Catalog No. 21490; Invitrogen). The cells were imaged with the Molecular Devices IXM microscope (FIG. 22). Translocation measurements were performed using MetaExpress software and normalized for cell number.

[4] = Plasma protein binding; type: in vitro ADME; details: human plasma; read-out: plasma protein binding, bound (converted)

SMILES | cytotoxicity [1] | efflux of cholesterol in Cys384Ser mutant background [2] | cytotoxicity ([1]; listed as ML278) | effect on the endocytosis of transferrin ([3]; at concentrations up to 35 μM) | endocytosis of transferrin ([3]; listed as ML278) | endocytosis of transferrin ([3]; listed as Probe 278) | endocytosis of transferrin ([3]; listed as compound of Formula (II)) | fraction unbound [4]
CCCCCCC1CCCC1=NNC(N)=S (stereo not drawn) [BLT-1, reference compound] | toxic to cells | does not significantly reduce uptake of HDL or efflux of cholesterol |  |  |  |  |  | 
COCC(=O)N1CCc2cc(-c3csc(NC(=O)c4cc(OC)cc(OC)c4)n3)ccc21 [Compound 137, 3,5-Dimethoxy-N-(4-(1-(2-methoxyacetyl)indolin-5-yl)thiazol-2-yl)benzamide] |  | can reduce uptake and efflux in the mutant background | no cytotoxicity at 24 hours; also recorded: shows no cytotoxicity | no effect on the endocytosis of transferrin | not grossly perturbing cellular membrane trafficking pathways | did not inhibit endocytosis of transferring | does not inhibit endocytosis of transferrin | 0.065
